# In patent US8329705B2, “Substituted triazolo-pyrazine compounds” (ArQule, Inc., priority 2009, dated 2012):
# What was measured:
# DLD-1 cancer cells = test: MTS assay, DLD-1 cells; format: cell-based; set-up: concentration or dose not given beside the values
# Protocol: (§1) Cells were maintained at 37° C., 5% CO2 in DMEM media supplemented with 1% fetal bovine serum, penicillin/streptomycin and fungizone (Invitrogen). Cells were seeded into 96-well tissue culture plates at 3000 per well and cultured at 37° C. for 18 hours. Test compounds were dissolved and diluted to 300× in DMSO then diluted 1:40 in DMEM. Cells were incubated with test compounds for 72 hours followed by incubation with tetrazolium compound (3-(4,5-dimethylthiazol-2-yl)-5-(3-carboxymethoxyphenyl)-2-(4-sulfophenyl)-2H-tetrazolium, inner salt; MTS) and the electron coupling reagent, phenazine methosulfate (PMS) for 4 hours. […] The ability of compounds to inhibit cell growth in this assay is correlated with the reduction of dehydrogenase enzyme activity found in metabolically active cells. The measurement of the absorbance of the formazan was assessed using a Victor (Perkin Elmer) microplate reader at 492 nm. The calculated IC50 value is the concentration of the test compound that causes a 50% decrease in the absorbance. Percent inhibition by representative compounds of the present invention in MDA-MB231 and DLD-1 cancer cells is shown in Table 4.
# MDA-MB-231 cancer cells = test: MTS assay, MDA-MB-231 cells; format: cell-based; set-up: concentration or dose not given beside the values
# Protocol: as §1
# FGFR2 (N549H) = molecular target: T1, FGFR2 (N549H) (Homo sapiens, UniProt P21802, N549H); test: FGFR2 kinase activity assay (fluorescent ELISA); format: biochemical; details: 30 μM compound
# T1 construct: purchased Millipore 14-742
# Protocol: A fluorescent ELISA assay was developed to identify and characterize inhibitors of FGFR2 kinase. This heterogeneous assay utilized a biotinylated peptide with a tyrosine motif as a substrate and an anti-phospho-tyrosine antibody to measure phosphorylation of the substrate. The reaction was initiated by adding a test compound, 37 uM Pyk2 substrate (Midwest Biotech, cat. #MBT2383), 12.5 uM ATP (Roche, cat. #11 140 965 001), and 0.5 uM FGFR2 enzyme (Millipore, cat. #14-742) sequentially to a non-binding polypropylene V-well plate. All reagents were in assay buffer consisting of: 50 mM Tris-HCL, 0.02 mg/mL BSA, 10 mM MgCl2, 0.1 mM Na3VO4, 1 mM EGTA, […], 0.01% NP-40, 2 mM DTT, 10% Glycerol. The reaction was incubated for 60 minutes. As the reaction proceeded, FGFR2 phosphorylated tyrosines in the peptide. The reaction mixture was then moved to a blocked streptavidin coated Nunc Maxisorb plate (coated with 100 ng streptavidin from Pierce (cat #15-124) per well) allowing for the capture of the biotinylated peptide. Peptide was captured for 30 minutes at room temperature, the phosphorylation of peptide continues during this phase. The reaction was stopped by washing the Streptavidin plate 6 times with TBST. Phosphorylated peptide was detected by adding anti-phospho tyrosine antibody (purchased from Cell Signaling, cat. #9411, diluted 1:3000), unbound antibody was removed by washing 6 times with TBST. Secondary detection was performed using Alkaline Phosphatase tagged goat anti-mouse antibody (purchased from Pierce, cat. #31320, diluted 1:4000) for one hour. Unbound secondary antibody was removed by washing 6 times with TBST.
# The fluorescent readout was initiated by the addition of Promega Attophos substrate (purchased from Promega; Kit catalog number: S1000, dilution=6 mg/10 mL), which when dephosphorylated by Alkaline phosphatase emitted a fluorescent signal of […] when excited by a signal […]. This reading was done on the Perkin Elmer Envision system. […] The signal was directly proportional to the activity of FGFR2 and compound inhibition of FGFR2 was monitored by a decrease in signal.
# T1 sequence (P21802 22-821 N549H): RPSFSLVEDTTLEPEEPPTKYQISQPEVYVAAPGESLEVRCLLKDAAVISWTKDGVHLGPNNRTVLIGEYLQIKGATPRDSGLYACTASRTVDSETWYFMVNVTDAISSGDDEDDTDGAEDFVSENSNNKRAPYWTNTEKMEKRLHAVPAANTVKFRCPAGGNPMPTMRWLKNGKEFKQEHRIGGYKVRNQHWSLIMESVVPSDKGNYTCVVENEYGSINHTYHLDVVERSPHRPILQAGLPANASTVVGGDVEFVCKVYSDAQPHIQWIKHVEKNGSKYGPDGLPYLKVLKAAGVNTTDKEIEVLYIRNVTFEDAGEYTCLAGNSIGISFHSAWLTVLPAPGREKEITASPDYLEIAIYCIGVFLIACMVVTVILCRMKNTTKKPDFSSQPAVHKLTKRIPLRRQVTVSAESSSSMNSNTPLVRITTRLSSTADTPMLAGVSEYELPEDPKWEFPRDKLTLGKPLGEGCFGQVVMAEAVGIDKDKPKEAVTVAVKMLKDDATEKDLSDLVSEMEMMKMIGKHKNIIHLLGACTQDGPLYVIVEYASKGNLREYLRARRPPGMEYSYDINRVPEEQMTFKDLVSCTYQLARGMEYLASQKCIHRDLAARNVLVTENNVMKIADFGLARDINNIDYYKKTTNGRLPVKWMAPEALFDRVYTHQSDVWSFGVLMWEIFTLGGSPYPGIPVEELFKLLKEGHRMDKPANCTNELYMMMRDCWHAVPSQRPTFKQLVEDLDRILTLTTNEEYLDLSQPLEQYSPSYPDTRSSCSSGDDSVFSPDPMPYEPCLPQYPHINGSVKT
SMILES,"DLD-1, MTS, 72 hours (% Inhibition) (DLD-1 cancer cells) [%]","MDA-MB-231, MTS, 72 hours (% inhibition) (MDA-MB-231 cancer cells) [%]",inhibition at 30 µM (FGFR2 (N549H)) [%]
COc1cccc(Nc2nccn3c(NC(=O)OC(C)C)nnc23)c1 [Compound 5],96,98,–
"Cc1ccnc(N(Cc2ccccc2)c2nccn3c(NC(=O)OC(C)C)nnc23)c1 [Compound 8, Isopropyl {8-[benzyl(4-methylpyridin-2-yl)amino][1,2,4]triazolo[4,3-a]pyrazin-3-yl}carbamate]",99,94,–
"COc1ccccc1CNc1nccn2c(NC(=O)OC(C)C)nnc12 [Compound 15, isopropyl {8-[(2-methoxybenzyl)amino][1,2,4]triazolo[4,3-a]pyrazin-3-yl}carbamate]",98,83,51
"CC(C)OC(=O)Nc1nnc2c(NCCC3CCCN3C)nccn12 (centres unmarked) [Compound 21, Isopropyl (8-{[2-(1-methylpyrrolidin-2-yl)ethyl]amino}[1,2,4]triazolo[4,3-a]pyrazin-3-yl)carbamate]",58,69,–
"CC(C)OC(=O)Nc1nnc2c(NCc3ccccc3C(F)(F)F)nccn12 [Compound 48, isopropyl (8-{[2-(trifluoromethyl)benzyl]amino}[1,2,4]triazolo[4,3-a]pyrazin-3-yl)carbamate]",–,–,87
"CC(C)OC(=O)Nc1nnc2c(Nc3ccc(C(C)(C)C)cc3)nccn12 [Compound 50, isopropyl {8-[(4-tert-butylphenyl)amino][1,2,4]triazolo[4,3-a]pyrazin-3-yl}carbamate]",–,–,63.6
"CC(C)OC(=O)Nc1nnc2c(Nc3nc4ccccc4[nH]3)nccn12 [Compound 56, isopropyl [8-(1H-benzimidazol-2-ylamino)[1,2,4]triazolo[4,3-a]pyrazin-3-yl]carbamate]",–,–,64.7
"CC(C)OC(=O)Nc1nnc2c(NCc3ccc(-c4ccccc4)cc3)nccn12 [Compound 61, isopropyl {8-[(biphenyl-4-ylmethyl)amino][1,2,4]triazolo[4,3-a]pyrazin-3-yl}carbamate]",–,–,100
"CC(C)OC(=O)Nc1nnc2c(NCc3cc(C(F)(F)F)cc(C(F)(F)F)c3)nccn12 [Compound 66, isopropyl (8-{[3,5-bis(trifluoromethyl)benzyl]amino}[1,2,4]triazolo[4,3-a]pyrazin-3-yl)carbamate]",–,–,58.4
"CC(C)OC(=O)Nc1nnc2c(Nc3cccc(Cl)c3)nccn12 [Compound 67, isopropyl {8-[(3-chlorophenyl)amino][1,2,4]triazolo[4,3-a]pyrazin-3-yl}carbamate]",–,–,119
"Cc1ccc(N(C)c2nccn3c(NC(=O)OC(C)C)nnc23)cc1 [Compound 69, isopropyl {8-[methyl(4-methylphenyl)amino][1,2,4]triazolo[4,3-a]pyrazin-3-yl}carbamate]",–,–,52.8
"CC(C)OC(=O)Nc1nnc2c(NCc3ccccc3Br)nccn12 [Compound 80, isopropyl {8-[(2-bromobenzyl)amino][1,2,4]triazolo[4,3-a]pyrazin-3-yl}carbamate]",–,–,51
"CC(C)OC(=O)Nc1nnc2c(NCc3ccccc3F)nccn12 [Compound 84, isopropyl {8-[(2-fluorobenzyl)amino][1,2,4]triazolo[4,3-a]pyrazin-3-yl}carbamate]",–,–,84
"Cc1cccc2c(CCNc3nccn4c(NC(=O)OC(C)C)nnc34)c[nH]c12 [Compound 85, isopropyl (8-{[2-(7-methyl-1H-indol-3-yl)ethyl]amino}[1,2,4]triazolo[4,3-a]pyrazin-3-yl)carbamate]",–,–,50.6
"CC(C)OC(=O)Nc1nnc2c(N(C)c3ccc(Cl)cc3)nccn12 [Compound 87, isopropyl {8-[(4-chlorophenyl)(methyl)amino][1,2,4]triazolo[4,3-a]pyrazin-3-yl}carbamate]",–,–,57.7
"Nc1nnc2c(NCc3ccccc3Br)nccn12 [Compound 92, N^8-(2-bromobenzyl)[1,2,4]triazolo[4,3-a]pyrazine-3,8-diamine]",–,–,59.2
"Nc1nnc2c(Nc3cccc(F)c3)nccn12 [Compound 99, N^8-(3-fluorophenyl)[1,2,4]triazolo[4,3-a]pyrazine-3,8-diamine]",–,–,60.7

SMILES,"DLD-1, MTS, 72 hours (% Inhibition) (DLD-1 cancer cells) [%]","MDA-MB-231, MTS, 72 hours (% inhibition) (MDA-MB-231 cancer cells) [%]",inhibition at 30 µM (FGFR2 (N549H)) [%]
"Nc1nnc2c(NCc3ccc(C(F)(F)F)cc3)nccn12 [Compound 100, N^8-[4-(trifluoromethyl)benzyl][1,2,4]triazolo[4,3-a]pyrazine-3,8-diamine]",–,–,66.5
"Cc1ccc(N(C)c2nccn3c(N)nnc23)cc1 [Compound 107, N^8-methyl-N^8-(4-methylphenyl)[1,2,4]triazolo[4,3-a]pyrazine-3,8-diamine]",–,–,86.1
"CN(C)c1ccc(Nc2nccn3c(N)nnc23)cc1 [Compound 116, N^8-[4-(dimethylamino)phenyl][1,2,4]triazolo[4,3-a]pyrazine-3,8-diamine]",–,–,50
"COc1ccc(CCNc2nccn3c(N)nnc23)cc1 [Compound 117, N^8-[2-(4-methoxyphenyl)ethyl][1,2,4] triazolo[4,3-a]pyrazine-3,8-diamine]",97,99,–
"Cc1cccc(Nc2nccn3c(N)nnc23)c1 [Compound 118, N^8-(3-methylphenyl)[1,2,4]triazolo[4,3-a]pyrazine-3,8-diamine]",–,–,50.4
"Nc1nnc2c(Nc3ccccc3F)nccn12 [Compound 121, N^8-(2-fluorophenyl)[1,2,4]triazolo[4,3-a]pyrazine-3,8-diamine]",–,–,65.7
"COc1ccc(C)cc1Nc1nccn2c(N)nnc12 [Compound 124, N^8-(2-methoxy-5-methylphenyl)[1,2,4]triazolo[4,3-a]pyrazine-3,8-diamine]",–,–,73.5
"Cc1cccc(CNc2nccn3c(N)nnc23)c1C [Compound 131, N^8-(2,3-dimethylbenzyl)[1,2,4]triazolo[4,3-a]pyrazine-3,8-diamine]",–,–,65.7
"Nc1nnc2c(NCCc3ccccc3)nccn12 [Compound 136, N^8-(2-phenylethyl)[1,2,4]triazolo [4,3-a]pyrazine-3,8-diamine]",97,76,–
"CCc1ccc(CNc2nccn3c(N)nnc23)cc1 [Compound 139, N^8-(4-ethylbenzyl)[1,2,4]triazolo[4,3-a]pyrazine-3,8-diamine]",–,–,96.3
"Nc1nnc2c(NCc3ccc(Br)cc3)nccn12 [Compound 140, N^8-(4-bromobenzyl)[1,2,4]triazolo[4,3-a]pyrazine-3,8-diamine]",–,–,52.9
"Nc1nnc2c(Nc3cccc(Br)c3)nccn12 [Compound 142, N^8-(3-bromophenyl)[1,2,4]triazolo[4,3-a]pyrazine-3,8-diamine]",–,–,59.9
"Nc1nnc2c(NCc3ccccc3C(F)(F)F)nccn12 [Compound 143, N^8-[2-(trifluoromethyl)benzyl][1,2,4]triazolo[4,3-a]pyrazine-3,8-diamine]",–,–,73.2
"COc1ccc(N(C)c2nccn3c(N)nnc23)cc1 [Compound 152, N^8-(4-methoxyphenyl)-N^8-methyl[1,2,4]triazolo[4,3-a]pyrazine-3,8-diamine]",–,–,109
"Nc1nnc2c(NCc3ccccc3F)nccn12 [Compound 153, N^8-(2-fluorobenzyl)[1,2,4]triazolo[4,3-a]pyrazine-3,8-diamine]",–,–,72.9
"COc1ccc(Cl)c(Nc2nccn3c(N)nnc23)c1 [Compound 154, N^8-(2-chloro-5-methoxyphenyl)[1,2,4]triazolo[4,3-a]pyrazine-3,8-diamine]",–,–,82.8
"CN(c1cccc(Cl)c1)c1nccn2c(N)nnc12 [Compound 155, N^8-(3-chlorophenyl)-N^8-methyl[1,2,4]triazolo[4,3-a]pyrazine-3,8-diamine]",–,–,57.4
